EP1027349B1, “TETRAHYDROFURAN PHOSPHATE- AND HYDROXY ESTERS, AS PRODRUGS FOR THE CORRESPONDING ANTIFUNGAL AGENT” (SCHERING CORPORATION, priority 1997, dated 1999)

What was measured:
[1] = Plasma concentrations and PK parameters of the compound of formula IV in mice after intravenous administration of di-NMG salt prodrugs; type: in vivo, mouse; design: AUC: unit not given here; conditions: for Concentrations of the compound of formula IV in pooled mouse plasma, Pool 1 / Concentrations of the compound of formula IV in pooled mouse plasma, Pool 2: 2 mice/pool; for AUC: Table 3 summary: area under the curve from time zero to 24 hrs of the compound of formula IV in mouse plasma; for AUC / Bioavallability: intravenous, 20 mg/kg formula IV dose equivalent of the di-NMG salt in sterile water; for Bioavallability: of the compound of formula IV in mouse plasma
[2] = test system: Aspergillus species (n=30); assay: In vitro antifungal activity (MIC), Espinel-Ingroff's methodology; conditions: for MIC Range: Aspergillus species (n=30); for MIC: Aspergillus, read-out: G mean MICs
[3] = test system: Candida species (n=41); assay: In vitro antifungal activity (MIC), NCCLS standard M27A; conditions: for MIC Range: Candida species (n=41); for MIC: Candida, read-out: G mean MICs
[4] = test system: Cryptococcus neoformans (n=9); assay: as above; conditions: for MIC Range: Cryptococcus neoformans (n=9); for MIC: Cryptococcus neoformans, read-out: G mean MICs
[5] = Antifungal activity in in vivo tests in mice; conditions: compared with itraconazole, fluconazole and azoles of USP 5,039,676 and WO 93/09114, result in words
[6] = Pharmacokinetic (metabolism) studies in human tissues and serum; type: in vitro ADME; conditions: result in words
[7] = test system: Aspergillus fumigatus; assay: Pulmonary Aspergillus fumigatus infection model in mice (Loebenberg et al.)
[8] = 0.017 hr (1 min) after intravenous administration of 20 mg/kg compound of formula IV dose equivalent of the di-NMG salt in sterile water
[9] = 0.017 hr (1 min) after intravenous administration of 20 mg/kg compound of formula IV dose equivalent of the di-NMG salt in sterile water, mean of 2 pools
[10] = 0.05 hr (3 min) after intravenous administration of 20 mg/kg compound of formula IV dose equivalent of the di-NMG salt in sterile water
[11] = 0.05 hr (3 min) after intravenous administration of 20 mg/kg compound of formula IV dose equivalent of the di-NMG salt in sterile water, mean of 2 pools
[12] = 0.083 hr (5 min) after intravenous administration of 20 mg/kg compound of formula IV dose equivalent of the di-NMG salt in sterile water
[13] = 0.083 hr (5 min) after intravenous administration of 20 mg/kg compound of formula IV dose equivalent of the di-NMG salt in sterile water, mean of 2 pools
[14] = 0.25 hr (15 min) after intravenous administration of 20 mg/kg compound of formula IV dose equivalent of the di-NMG salt in sterile water
[15] = 0.25 hr (15 min) after intravenous administration of 20 mg/kg compound of formula IV dose equivalent of the di-NMG salt in sterile water, mean of 2 pools
[16] = 0.5 hr (30 min) after intravenous administration of 20 mg/kg compound of formula IV dose equivalent of the di-NMG salt in sterile water
[17] = 0.5 hr (30 min) after intravenous administration of 20 mg/kg compound of formula IV dose equivalent of the di-NMG salt in sterile water, mean of pools
[18] = 1 hr. after intravenous administration of 20 mg/kg compound of formula IV dose equivalent of the di-NMG salt in sterile water
[19] = 1 hr. after intravenous administration of 20 mg/kg compound of formula IV dose equivalent of the di-NMG salt in sterile water, mean of 2 pools
[20] = 3 hr. after intravenous administration of 20 mg/kg compound of formula IV dose equivalent of the di-NMG salt in sterile water
[21] = 3 hr. after intravenous administration of 20 mg/kg compound of formula IV dose equivalent of the di-NMG salt in sterile water, mean of 2 pools
[22] = 6 hr. after intravenous administration of 20 mg/kg compound of formula IV dose equivalent of the di-NMG salt in sterile water
[23] = 6 hr. after intravenous administration of 20 mg/kg compound of formula IV dose equivalent of the di-NMG salt in sterile water, mean of 2 pools
[24] = 24 hr. after intravenous administration of 20 mg/kg compound of formula IV dose equivalent of the di-NMG salt in sterile water
[25] = 24 hr. after intravenous administration of 20 mg/kg compound of formula IV dose equivalent of the di-NMG salt in sterile water, mean of 2 pools

Row | Structure (SMILES) | Concentrations of the compound of formula IV in pooled mouse plasma, Pool 1 [1, 8] [ng/mL] | Concentrations of the compound of formula IV in pooled mouse plasma, Pool 2 [1, 8] [ng/mL] | Concentrations of the compound of formula IV in pooled mouse plasma, Mean [1, 9] [ng/mL] | Concentrations of the compound of formula IV in pooled mouse plasma, Pool 1 [1, 10] [ng/mL] | Concentrations of the compound of formula IV in pooled mouse plasma, Pool 2 [1, 10] [ng/mL] | Concentrations of the compound of formula IV in pooled mouse plasma, Mean [1, 11] [ng/mL] | Concentrations of the compound of formula IV in pooled mouse plasma, Pool 1 [1, 12] [ng/mL] | Concentrations of the compound of formula IV in pooled mouse plasma, Pool 2 [1, 12] [ng/mL] | Concentrations of the compound of formula IV in pooled mouse plasma, Mean [1, 13] [ng/mL] | Concentrations of the compound of formula IV in pooled mouse plasma, Pool 1 [1, 14] [ng/mL] | Concentrations of the compound of formula IV in pooled mouse plasma, Pool 2 [1, 14] [ng/mL] | Concentrations of the compound of formula IV in pooled mouse plasma, Mean [1, 15] [ng/mL] | Concentrations of the compound of formula IV in pooled mouse plasma, Pool 1 [1, 16] [ng/mL] | Concentrations of the compound of formula IV in pooled mouse plasma, Mean [1, 17] [ng/mL] | Concentrations of the compound of formula IV in pooled mouse plasma, Pool 1 [1, 18] [ng/mL] | Concentrations of the compound of formula IV in pooled mouse plasma, Pool 2 [1, 18] [ng/mL] | MIC [2] [µg/mL] | MIC [3] [µg/mL] | MIC Range [4] [µg/mL] | MIC [4] [µg/mL] | further results
1 | CC[C@@H]([C@H](C)OC(=O)CCCOP(=O)(O)O)n1ncn(-c2ccc(N3CCN(c4ccc(OC[C@@H]5CO[C@@](Cn6cncn6)(c6ccc(F)cc6F)C5)cc4)CC3)cc2)c1=O [Formula II.2NMG] | 171 | 164 | 168 | 378 | 297 | 338 | 798 | 817 | 808 | 1570 | 2720 | 2150 | 3020 | 2680 | 4460 | 3950 |  |  |  |  | Concentrations of the compound of formula IV in pooled mouse plasma, Pool 2 [1, 16]: 2340 ng/mL; Concentrations of the compound of formula IV in pooled mouse plasma, Mean [1, 19]: 4210 ng/mL; Concentrations of the compound of formula IV in pooled mouse plasma, Pool 1 [1, 20]: 5160 ng/mL; Concentrations of the compound of formula IV in pooled mouse plasma, Pool 2 [1, 20]: 5630 ng/mL; Concentrations of the compound of formula IV in pooled mouse plasma, Mean [1, 21]: 5400 ng/mL; Concentrations of the compound of formula IV in pooled mouse plasma, Pool 1 [1, 22]: 5960 ng/mL; Concentrations of the compound of formula IV in pooled mouse plasma, Pool 2 [1, 22]: 3590 ng/mL; Concentrations of the compound of formula IV in pooled mouse plasma, Mean [1, 23]: 4780 ng/mL; Concentrations of the compound of formula IV in pooled mouse plasma, Pool 1 [1, 24]: 915 ng/mL; Concentrations of the compound of formula IV in pooled mouse plasma, Pool 2 [1, 24]: 992 ng/mL; Concentrations of the compound of formula IV in pooled mouse plasma, Mean [1, 25]: 954 ng/mL; AUC [1]: 79.1; Bioavallability [1]: 65%
2 | CC[C@@H]([C@H](C)OC(=O)CCCO)n1ncn(-c2ccc(N3CCN(c4ccc(OC[C@@H]5CO[C@@](Cn6cncn6)(c6ccc(F)cc6F)C5)cc4)CC3)cc2)c1=O [Formula III, 2(S)-[4-{4-{4-{4-[[(R-Cis) -2-(2,4-difluorophenyl)-tetrahydro-2-(1H-1,2,4-triazol-1-ylmethyl)-4-furanyl]methoxy]phenyl]-1-piperazinyl]phenyl]-4,5-dihydro-5-oxo-1H-1,2,4-triazol-1-yl]-1-(S)-methylbutyl-4-hydroxy-butanoate] |  |  |  |  |  |  |  |  |  |  |  |  |  |  |  |  | 0.2 | 0.3 | 0.0156 to 0.5 | 0.09 | MIC Range [2]: 0.0313 to 2 µg/mL; MIC Range [3]: ≤ 0.0156 to 8 µg/mL; antifungal activity in in vivo tests [5]: unexpectedly better than that of existing antifungal agents
3 | CC[C@@H]([C@H](C)OC(=O)CCCOP(=O)(O)O)n1ncn(-c2ccc(N3CCN(c4ccc(OC[C@@H]5CO[C@@](Cn6cncn6)(c6ccc(F)cc6F)C5)cc4)CC3)cc2)c1=O [Formula II] |  |  |  |  |  |  |  |  |  |  |  |  |  |  |  |  | 5.9 | 7.5 | 0.125 to 32 | 1.9 | metabolism [6]: metabolized to the compound of formula IV via the metabolite represented by formula III; survival ([7]; doses of 10 mg/kg, mice with a pulmonary Aspergillus fumigatus infection): 70%
4 | CC[C@@H]([C@H](C)O)n1ncn(-c2ccc(N3CCN(c4ccc(OC[C@@H]5CO[C@@](Cn6cncn6)(c6ccc(F)cc6F)C5)cc4)CC3)cc2)c1=O [Formula IV, reference compound] |  |  |  |  |  |  |  |  |  |  |  |  |  |  |  |  | 0.1 | 0.2 | ≤0.0150 to 0.5 | 0.04 | MIC Range [2]: ≤0.0156 to 1 µg/mL; MIC Range [3]: ≤0.0156 to 8 µg/mL; antifungal activity in in vivo tests [5]: unexpectedly better than that of existing antifungal agents
5 | CC[C@@H]([C@H](C)OC(=O)CCCCOP(=O)(O)O)n1ncn(-c2ccc(N3CCN(c4ccc(OC[C@@H]5CO[C@@](Cn6cncn6)(c6ccc(F)cc6F)C5)cc4)CC3)cc2)c1=O [Formula V.2NMG, reference compound] | 0 | 0 | 0 | 738 | 663 | 723 | 1040 | 1430 | 1240 | 1220 | 407 | 814 | 1990 | 1990 | 2730 | 2630 |  |  |  |  | Concentrations of the compound of formula IV in pooled mouse plasma, Mean [1, 19]: 2680 ng/mL; Concentrations of the compound of formula IV in pooled mouse plasma, Pool 1 [1, 20]: 923 ng/mL; Concentrations of the compound of formula IV in pooled mouse plasma, Pool 2 [1, 20]: 2510 ng/mL; Concentrations of the compound of formula IV in pooled mouse plasma, Mean [1, 21]: 1720 ng/mL; Concentrations of the compound of formula IV in pooled mouse plasma, Pool 1 [1, 22]: 2590 ng/mL; Concentrations of the compound of formula IV in pooled mouse plasma, Pool 2 [1, 22]: 1900 ng/mL; Concentrations of the compound of formula IV in pooled mouse plasma, Mean [1, 23]: 2250 ng/mL; Concentrations of the compound of formula IV in pooled mouse plasma, Pool 1 [1, 24]: 447 ng/mL; Concentrations of the compound of formula IV in pooled mouse plasma, Pool 2 [1, 24]: 515 ng/mL; Concentrations of the compound of formula IV in pooled mouse plasma, Mean [1, 25]: 481 ng/mL; AUC [1]: 36.7; Bioavallability [1]: 30%
6 | OC(Cn1cncn1)(Cn1cncn1)c1ccc(F)cc1F [fluconazole, reference compound] |  |  |  |  |  |  |  |  |  |  |  |  |  |  |  |  |  |  |  |  | activity in Aspergillus pulmonary infection model ([7]; mice, result in words): inactive
